Data as given in US6384076B1, “Inhibition or erythrocyte sickling by N-L-alpha-aspartyl-L-phenylalanine 1-methyl ester” (Oklahoma Medical Research Foundation, priority 1998, dated 2002).
“And” between values parts separate entries of the source, which are not always exact repeats. Equal values may be shown once. Peptide text beside a SMILES is read from it.

Key:
whole blood viscosity [1] = experiment: Blood viscosity by RBC pipette method before and after blinded oral APM; type: in vivo, human; conditions: for Blood viscosity change after treatment: baseline vs 120 minutes post-treatment
Text: Blood samples were obtained from ten patients having homozygous HbSS disease or heterozygous HbSC disease before and after a blinded administration of APM at 1.5 (low dosage), 3 (medium dosage), or 6 (high dosage) milligrams per kilogram body weight. The patients' characteristics are given in the first ten entries in Table II.
Viscosity determinations using the RBC pipette method of Wright and Jenkins (Wright, D. J. and Jenkins, Jr., D. E. 1970. Blood 36:516-522) were made on each blinded whole blood sample before and 120 minutes after blinded administration of APM. Each measurement was made in triplicate. Control viscosity measurements using saline and water for each patient and normal whole blood sample were also made to validate the viscosity measurements.
(§1) To measure viscosity, 1.01 cc of the test fluid, i.e., either water, saline or blood, was drawn into an RBC pipette using a 50 cc syringe attached via rubber tubing to the top of the RBC pipette. Using a constant pressure of 20 mm by maintaining the pressure with visual feedback and hand pressure, the amount of time it took for the test fluid to drip out of the RBC pipette was measured with a stopwatch. Each measurement was made in triplicate.

whole blood viscosity [2] = experiment: Blood viscosity after additional in vitro APM on samples taken post in vivo treatment; type: cell-based, human; conditions: 1 or 2 milligrams/milliliter APM added in vitro to 480 minute post-treatment samples
Protocol: as §1
Samples with high viscosity readings at 480 minute or 1,440 minute posttreatment, chosen to represent patients with a validated response to APM who were returning to normal, were divided and treated with an additional 0, 1, or 2 milligrams/milliliter APM in vitro, in an effort to measure whether a second inducible sickling response was possible and if a second response to the in vitro APM addition could be observed. The viscosity of each sample at 480 minutes post-treatment was measured.

RBCs containing HbS = experiment: Metabisulfite sickling test on heparinized patient blood treated with APM in vitro; type: cell-based, human; conditions: for Number of Cells Sickled per Hundred Counted: individual patients 1-12, baseline subtracted; for Number of Cells Sickled per Hundred Counted, Avg: average over 0, 30, 120 min per patient 1-12; for Number of Cells Sickled per Hundred Counted, Mean: mean of the twelve patients' averages (control 17.7)
Protocol: Blood was drawn from twelve patients of pediatric age who were being treated by phlebotomy and exchange transfusion for their sickling disorders. Blood samples from each patient were drawn directly into heparin tubes, stored in a refrigerator at approximately 10° C., and routinely tested within 36 hours of collection. Some samples were rechecked or reanalyzed within a week of collection, and the effects on sickle hemoglobin was still present with counted values similar to those obtained within 36 hours.
Normal blood devoid of HbS was used as a control. For each heparinized patient blood sample and the normal blood control, three experimental samples were prepared containing 0.25 milliliters of normal saline and 0.25 milliliters of blood and then treated as follows: (1) one was left untreated; one was treated with 1 milligram APM; and (3) one was treated with 2 milligrams APM. All experimental samples were stored in a refrigerator at approximately 10° C. for one hour prior to testing to allow time for the APM to be absorbed by the RBCs.
Using metabisulfite to reduce HbS to the deoxy form (Daland, G. A. and Castle, W. B. 1948. J Lab Clin Med 33:1082-1088; Nelson, D. A. In Todd-Sanford-Davidsohn Clinical Diagnosis by Laboratory Methods, J. B. Henry, ed. (W. B. Saunders Co., Philadelphia, 1979, vol. 1, p. 1020), a sickling test was run on each experimental sample. The sickling inducing agent was prepared fresh daily as follows: 10 milligrams metabisulfite in 1 milliliter isotonic saline. Multiple test slides were prepared for each experimental sample by adding 3 drops of the metabisulfite inducing agent and 1 drop of the experimental sample onto the surface of a glass slide, placing a coverslip over the sample, and sealing the coverslip with a petroleum jelly bead to prevent oxygen from entering the sample. Photomicrographs were taken with a phase contrast microscope at 400 magnification at 0, 30, and 120 minutes after slide preparation, and the results were obtained from the photomicrographs as the number of sickle cells per 100 cells counted.
To account for natural or non-induced sickling of the experimental samples, a baseline sickling count was obtained for each heparinized patient blood sample and the normal blood control. Slides were prepared by adding 3 drops of saline and 1 drop of the experimental sample onto the surface of a glass slide, placing a coverslip over the sample, and sealing the coverslip with a petroleum jelly bead to prevent oxygen from entering the sample. Photomicrographs were taken with a phase contrast microscope at 400 magnification at 0, 30, and 120 minutes after slide preparation, and the results were obtained from the photomicrographs as the number of sickle cells per 100 cells counted. This number of sickle cells per 100 cells counted was considered the baseline sickling count and was subtracted from the cell counts obtained with the metabisulfite induced samples.
A timeline for APM effect was made by repeating the experiment given above with cell counts obtained at 0, 1, 2, 3, 4, 5, 24, and 27 hours post-metabisulfite induction. The results are presented in FIG. 2 as combined APM timelines for each treatment method. The antisickling effect of APM in vitro lasted for at least 27 hours. During this period, the rate of sickling in the APM treated
The effect of calcium (Ca^2+) on the effectiveness of APM was examined by repeating the experiment above with the addition of EDTA, a Ca^2+chelating agent, to normal blood control and the patient experimental samples prior to testing. FIG. 3 illustrates the comparative heparin versus EDTA treatment of the blood. […] Moreover, the addition of a calcium salt to APM formulations useful for antisickling treatment as well as in vitro applications is desirable.

[3] = tested on: osteo- and mixed osteo- and rheumatoid arthritis; conditions: clinical trial, Edmundson and Manion 1998; cited from earlier work
sickling RBCs [4] = experiment: Reduction of sickle cells in vivo: metabisulfite sickling test on blood of one patient before and 1 hour after oral APM; parameters: species or system human; conditions: blood 1 hour after
Protocol: During Week 1 of the study, blood samples were taken from the patient before and one hour after an orally administered dose of 60 milligrams APM. During Week 2, blood samples were taken from the patient before and one hour after an orally administered dose of 160 milligrams APM. The blood samples and slides were prepared according to the methods given in Example 1, and cell counts were taken at 0, 30, and 120 minutes post-induction.

sickling RBCs [5] = experiment: Blinded APM dose-response study of patients with sickle cell disorders (sickle cell counts); type: in vivo, human; conditions: for Dose-response of antisickling effect: 1.5, 3, 6 mg/kg body weight
Protocol: A blinded study was conducted with 23 patients diagnosed with sickle cell disorders. Blood samples were obtained from the 23 patients having sickle cell disease (homozygous HgBss), sickle cell trait (heterozygous Hgbsc), or homozygous HbS with a β-thalassemia chain (“sbthal”) before and after a blinded administration of APM at 1.5 (low dosage), 3 (medium dosage), or 6 (high dosage) milligrams per kilogram body weight.
Blood was drawn before and 120 minutes after treatment with 0, 1.5, 3, or 6 milligrams APM per kilogram body weight in a blinded fashion from the ten patients into heparin tubes, stored in a refrigerator at approximately 10° C. and routinely tested within 36 hours of collection.
Normal blood devoid of abnormal hemoglobin was used as a control. For each heparinized patient blood sample and the normal blood control, experimental samples were prepared containing 0.25 milliliters of normal saline and 0.25 milliliters of blood. Following the metabisulfite induction as given in Example 1, the number of sickle cells relative to the number of normal cells was obtained at 0, 30, 60, 120, 240, 480, and 1440 minutes post-induction.

COC(=O)[C@H](Cc1ccccc1)NC(=O)[C@@H](N)CC(=O)O [APM, N-L-alpha-aspartyl-L-phenylalanine 1-methyl ester] (H-Asp-Phe-OMe)
Blood viscosity change after treatment (whole blood viscosity [1]; HgBss patients, 1.5, 3 or 6 mg/kg): blood viscosity decreased | No. of Patients with decreasing viscosity (whole blood viscosity [1]; HgBss, of five patients): 5 | Blood viscosity change after treatment (whole blood viscosity [1]; Hgbsc patients): increased viscosity | No. of Patients with increasing viscosity (whole blood viscosity [1]; Hgbsc, of three patients): 3 | Blood viscosity change after treatment (whole blood viscosity [1]; sbthal patients): blood viscosity also decreased | No. of Patients with decreasing viscosity (whole blood viscosity [1]; sbthal, of two patients): 2 | Viscosity of blood samples compared to the control (whole blood viscosity [2]; HgBss patients): decreased over time | Viscosity of blood samples compared to the control (whole blood viscosity [2]; Hgbsc patients): increase in viscosity | Number of Cells Sickled per Hundred Counted (RBCs containing HbS; APM 1 mg in 0.25 ml blood + 0.25 ml saline, 0 min after slide preparation): 1.5 per Hundred Counted (2×) and 1.0 per Hundred Counted and 0.5 per Hundred Counted and 0.0 per Hundred Counted and 2.5 per Hundred Counted (2×) and 2.0 per Hundred Counted (2×) and 9.5 per Hundred Counted (2×) and −1.0 per Hundred Counted | Number of Cells Sickled per Hundred Counted (RBCs containing HbS; APM 1 mg, 30 min after slide preparation): 2.5 per Hundred Counted and 2.0 per Hundred Counted and −1.0 per Hundred Counted and 6.0 per Hundred Counted and 1.5 per Hundred Counted and 3.5 per Hundred Counted (2×) and 3.0 per Hundred Counted and 10.5 per Hundred Counted and 9.0 per Hundred Counted and 4.5 per Hundred Counted and −0.5 per Hundred Counted | Number of Cells Sickled per Hundred Counted (RBCs containing HbS; APM 1 mg, 120 min after slide preparation): 1.5 per Hundred Counted and 3.5 per Hundred Counted (2×) and 1.0 per Hundred Counted and 21.0 per Hundred Counted and 2.5 per Hundred Counted and 3.0 per Hundred Counted and 12.0 per Hundred Counted and 11.0 per Hundred Counted and 4.0 per Hundred Counted and 0.5 per Hundred Counted | Number of Cells Sickled per Hundred Counted, Avg (RBCs containing HbS; APM 1 mg): 1.8 per Hundred Counted and 2.2 per Hundred Counted (2×) and 0.2 per Hundred Counted and 9.0 per Hundred Counted and 2.8 per Hundred Counted (2×) and 10.7 per Hundred Counted and 9.8 per Hundred Counted and 3.2 per Hundred Counted (2×) and −0.3 per Hundred Counted | Number of Cells Sickled per Hundred Counted, Mean (RBCs containing HbS; APM 1 mg): 4.0 per Hundred Counted | Number of Cells Sickled per Hundred Counted (RBCs containing HbS; APM 2 mg in 0.25 ml blood + 0.25 ml saline, 0 min after slide preparation): 0.5 per Hundred Counted (2×) and 0.0 per Hundred Counted (2×) and 2.0 per Hundred Counted (2×) and 2.5 per Hundred Counted and 1.0 per Hundred Counted (2×) and 6.5 per Hundred Counted and 8.5 per Hundred Counted and −5.5 per Hundred Counted | Number of Cells Sickled per Hundred Counted (RBCs containing HbS; APM 2 mg, 30 min after slide preparation): 0.5 per Hundred Counted (2×) and 1.0 per Hundred Counted and −0.5 per Hundred Counted and 6.0 per Hundred Counted and 2.0 per Hundred Counted (3×) and 1.5 per Hundred Counted and 5.0 per Hundred Counted and 8.5 per Hundred Counted and −6.5 per Hundred Counted | Number of Cells Sickled per Hundred Counted (RBCs containing HbS; APM 2 mg, 120 min after slide preparation): −0.5 per Hundred Counted (2×) and 0.5 per Hundred Counted and 19.0 per Hundred Counted and 2.5 per Hundred Counted and 5.0 per Hundred Counted and 2.0 per Hundred Counted (2×) and 9.5 per Hundred Counted and 1.0 per Hundred Counted and −6.5 per Hundred Counted | Number of Cells Sickled per Hundred Counted, Avg (RBCs containing HbS; APM 2 mg): 0.0 per Hundred Counted and 0.5 per Hundred Counted and −0.3 per Hundred Counted and 9.0 per Hundred Counted and 2.3 per Hundred Counted and 1.3 per Hundred Counted and 3.0 per Hundred Counted and 4.5 per Hundred Counted and 8.8 per Hundred Counted and 1.2 per Hundred Counted and 0.8 per Hundred Counted and −6.2 per Hundred Counted | Number of Cells Sickled per Hundred Counted, Mean (RBCs containing HbS; APM 2 mg): 2.1 per Hundred Counted | Antisickling effect of APM with addition of EDTA (RBCs containing HbS; EDTA (Ca2+ chelating agent) added prior to testing): completely eliminated the antisickling effect | Sickle cells after metabisulfite versus controls (RBCs containing HbS; all twelve patients, 1 and 2 mg APM, ANOVA p<0.00004): fewer sickle cells than the controls | Duration of antisickling effect in vitro (RBCs containing HbS; counts at 0-27 hours post-metabisulfite induction): at least 27 hours | Passage of APM across the RBC membrane (RBCs containing HbS; in the absence of Ca2+ (EDTA)): does not pass the RBC membrane | Rate of sickling in APM treated cells (RBCs containing HbS; over 27 hours, versus controls): significantly less than that in the controls | Pain and inflammation of arthritis [3]: alleviate the pain and inflammation | Number of sickling RBCs relative to the control (sickling RBCs [4]; 60 milligrams APM orally, patient with sickle cell anemia): decrease in the number of sickling RBCs | Antisickling effect versus 60 milligram dosage (sickling RBCs [4]; 160 milligrams APM orally, same patient): proportionately larger | Dose-response of antisickling effect (sickling RBCs [5]; HgBss and sbthal patients): significant dose-response effect | Dose-response of antisickling effect (sickling RBCs [5]; Hgbsc patients): No dose-response effect | Effect on HbSC blood (sickling RBCs [5]; in vivo or in vitro, sickle cell number and viscosity): not affected | Number of sickling RBCs relative to the control (sickling RBCs [5]; lower dosage 1.5 mg/kg body weight): decrease in the number of sickling RBCs | Time to reduction in number of sickle cells relative to normal cells after administration (sickling RBCs [5]; patients with sickle cell family diseases, effective amount): within one hour
